What all share (assay): growth of human tumour cells (NCI), 48 h
In assay [1] the test system is ACHN renal.
The test system of assay [2] is CAKI-1 renal.
Assay [3] has as its system CCRF-CEM leukemia.
For assay [4], the system named is COLO 205 colon.
Assay [5] relates to MDA-MB-435.
The test system of assay [6] is MDA-N.
Assay [7] has as its system NCI-H522 lung.
Assay [8] concerns RPMI-8226 leukemia.
Assay [9] relates to SR leukemia.
The test system of assay [10] is TK-10 renal.

Results on 13 compounds are retold here after PubChem BioAssay (NCI).

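Briefly, cells in 96-well plates were exposed to five compound concentrations for 48 h, and endpoints were estimated by linear interpolation. TGI marks complete inhibition of growth.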

With `CCOC(=O)c1ccc(C(=O)/C(C(C)=O)=C2\CCCN2C)n1C`, the TGI in [1], in [2], in assay [3], in assay [4], in assay [5] and in [6] was greater than 100 µM each time. Also, the TGI in [7] is greater than 100 µM; in [8], greater than 100 µM; in assay [9], 98.9 µM; in [10] it was greater than 100 µM.
As to `CCCCCCCCCCCCCC[S+](C)C`, the TGI in assay [1] is greater than 10 µM; in [2], greater than 10 µM; in [3], 3.25 µM; in assay [4], 2.97 µM; in assay [5] it was 4.35 µM; in [6], 4.15 µM. The TGI in [7] is 4.33 µM; in [8], 2.65 µM; in [9] it was 2.35 µM; in assay [10] it was 3.75 µM.
Turning to `CC(=O)N(O)[C@@H]1CC[C@H](n2cnc3c(N)ncnc32)C1`, the TGI in [1], in [2], in assay [3], in [4], in assay [5] and in assay [6] was greater than 100 µM throughout. Also, the TGI in [7], in assay [8], in [9] and in [10] was greater than 100 µM each time.
With `O=C/C=C/c1ccco1`, the TGI in [1], in assay [2], in assay [3], in [4], in assay [5] and in assay [6] was greater than 100 µM in each case. The TGI in assay [7], in assay [8], in assay [9] and in assay [10] was greater than 100 µM in each case.
Consider `O=C(CCCCCCC(=O)Nc1cccnc1)NO`, for which the TGI was greater than 92.2 µM in assay [1]; greater than 100 µM in assay [2]; greater than 100 µM in [3]; greater than 20.5 µM in [4]; greater than 42.6 µM in [5]; greater than 25.6 µM in assay [6]. Moreover, the TGI in assay [7] is 17.3 µM; in [8], greater than 29.4 µM; in assay [9], greater than 100 µM; in [10] it was greater than 100 µM.
In the case of `COc1ccc(OC)c(CC2CCc3nc(N)nc(N)c3C2)c1` (centres undefined), the TGI was greater than 65.8 µM in assay [1]; greater than 100 µM in assay [2]; greater than 100 µM in [3]; 29.2 µM in assay [4]; 54 µM in assay [5]; 27.7 µM in [6]. For the same compound, the TGI in assay [7] was 25 µM; in assay [8], greater than 100 µM; in assay [9] it was greater than 69.8 µM; in [10], greater than 94 µM.
As to `CCOc1ccc(/C=N/[N+](C)(C)C)cc1OCC`, the TGI in assay [1], in assay [2], in [3], in [4], in assay [5] and in assay [6] was greater than 10 µM in each case. Also, the TGI in assay [7], in assay [8], in assay [9] and in [10] was greater than 10 µM each time.
`CSc1ccc(NC(=S)NN(C)C)cc1`: the TGI in [1], in assay [2], in assay [3], in [4], in [5] and in assay [6] was greater than 10 µM each time. For the same compound, the TGI in assay [7], in [8], in assay [9] and in assay [10] was greater than 10 µM in each case.
Regarding `COC1(OC)CC(CO)(CNc2cc(Cl)nc(N)n2)C1`, the TGI in [1], in [2], in [3], in [4], in assay [5] and in assay [6] was greater than 100 µM in each case. The TGI in assay [7], in assay [8], in [9] and in [10] was greater than 100 µM each time.
Take `Cc1cc(NC[C@H](O)[C@H](O)[C@H](O)CO)c(Sc2cc(=O)[nH]c(=O)[nH]2)cc1C`: the TGI in [1], in assay [2], in assay [3], in [4], in [5] and in [6] was greater than 62.5 µM in each case. The TGI in assay [7], in assay [8], in assay [9] and in [10] was greater than 62.5 µM in each case.
In the case of `CC(C)C1=CCC2C(=C1)CCC1C(C)(C(=O)O)CCCC21C` (centres undefined) (tested in a mixture with another compound), the TGI in [1], in [2], in [3], in assay [4], in assay [5] and in [6] was greater than 100 µM throughout. Moreover, the TGI in assay [7] was greater than 100 µM; in assay [8] it was 70.2 µM; in assay [9] it was greater than 100 µM; in [10], greater than 100 µM.
Regarding `O=C1/C(=C/c2ccccc2O)N=C(c2ccccc2)N1c1nc2ccccc2s1`, the TGI is 64.3 µM in assay [1]; greater than 100 µM in assay [2]; greater than 100 µM in [3]; greater than 100 µM in [5]; 8.55 µM in assay [6]; 17.2 µM in assay [7]. The TGI in assay [8] turned out to be 49.3 µM; in assay [9], 7.19 µM; in [10] it was 74.9 µM.
Regarding `Brc1ccc2c([C@H]3CN[C@@H](c4c[nH]c5cc(Br)ccc45)CN3)c[nH]c2c1`, the TGI was 9.87 µM in [1]; 11.3 µM in assay [2]; 8.64 µM in assay [3]; 2.91 µM in assay [4]; 3.11 µM in [5]; 3.04 µM in assay [6]. For the same compound, the TGI in [7] was found to be 3.15 µM; in assay [8] it was 7.15 µM; in assay [9] it was 6.77 µM; in assay [10], 18.5 µM.
